Assays:
Assay in all cases: relative viability (nuclei count vs DMSO), 5 days (fraction); higher = more cells survive
[1] = compound: COC1=CC=C(C=C1)CN2C=CC3=C2C=C(C=C3)C(=O)NO + Cc1nc(NC(=O)N2CCC[C@H]2C(N)=O)sc1-c1ccnc(C(C)(C)C(F)(F)F)c1 [Alpelisib] (partner 2 µM)
How it was run: (§1)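 Relative viability divides the nuclei count in treated wells by that in vehicle wells. Lung cancer cell lines were seeded in 1536-well plates, dosed by pin tool the next day, and fixed and stained after 5 days in one step with final 0.05% Triton X-100, 1% formaldehyde and 1 ug/ml Hoechst. Dosing was a single drug or a fixed anchor-drug dose plus five library-drug doses (not always all listed) in √10 steps, and values are medians of duplicate plates imaged at 4×.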

Veliparib + Crizotinib = compound: C[C@]1(c2nc3c(C(N)=O)cccc3[nH]2)CCCN1 [Veliparib] + C[C@@H](Oc1cc(-c2cnn(C3CCNCC3)c2)cnc1N)c1c(Cl)ccc(F)c1Cl [Crizotinib] (partner 1 µM)
How it was run: as §1

Veliparib + Foretinib = compound: C[C@]1(c2nc3c(C(N)=O)cccc3[nH]2)CCCN1 [Veliparib] + COc1cc2c(Oc3ccc(NC(=O)C4(C(=O)Nc5ccc(F)cc5)CC4)cc3F)ccnc2cc1OCCCN1CCOCC1 [Foretinib] (partner 0.25 µM)
How it was run: as §1

[2] = compound: COC1=CC=C(C=C1)CN2C=CC3=C2C=C(C=C3)C(=O)NO + Cc1nc(Nc2ncc(C(=O)Nc3c(C)cccc3Cl)s2)cc(N2CCN(CCO)CC2)n1 [Dasatinib] (partner 0.075 µM)
How it was run: as §1

Cell Line | relative viability ([1]; first compound 0.253 µM) | relative viability ([1]; first compound 0.8 µM) | relative viability ([1]; first compound 2.53 µM) | relative viability ([1]; first compound 8 µM) | relative viability (Veliparib + Crizotinib; first compound 0.02 µM) | relative viability (Veliparib + Crizotinib; first compound 0.06325 µM) | relative viability (Veliparib + Crizotinib; first compound 0.2 µM) | relative viability (Veliparib + Crizotinib; first compound 0.6325 µM) | relative viability (Veliparib + Crizotinib; first compound 2 µM) | relative viability (Veliparib + Foretinib; first compound 0.02 µM) | relative viability (Veliparib + Foretinib; first compound 0.06325 µM) | relative viability (Veliparib + Foretinib; first compound 0.2 µM) | relative viability (Veliparib + Foretinib; first compound 0.6325 µM) | relative viability (Veliparib + Foretinib; first compound 2 µM) | relative viability ([2]; first compound 0.08 µM) | relative viability ([2]; first compound 0.253 µM) | relative viability ([2]; first compound 0.8 µM) | relative viability ([2]; first compound 2.53 µM) | relative viability ([2]; first compound 8 µM) | relative viability ([1]; first compound 0.08 µM)
HCC-78 | 0.359 | 0.395 | 0.35 | 0.305 | 0.342 | 0.3 | 0.409 | 0.383 | 0.352 | 0.557 | 0.557 | 0.568 | 0.539 | 0.571 | 0.436 | 0.362 | 0.391 | 0.449 | 0.39 | 
HCC-366 | 0.435 | 0.384 | 0.587 | 0.406 | 0.592 | 0.38 | 0.543 | 0.401 | 0.419 | 0.987 | 0.813 | 0.891 | 0.809 | 0.934 | 0.483 | 0.639 | 0.658 | 0.526 | 0.574 | 
HCC-827 | 0.947 | 1.01 | 0.995 | 0.969 | 0.913 | 0.919 | 0.947 | 0.921 | 0.905 | 1.08 | 1.01 | 0.984 | 1.03 | 1.02 | 0.429 | 0.395 | 0.277 | 0.297 | 0.275 | 0.975
HOP-62 | 0.996 | 0.985 | 0.932 | 0.947 | 0.981 | 0.795 | 0.836 | 0.866 | 0.933 | 1.17 | 0.983 | 0.99 | 1.13 | 1.22 | 0.601 | 0.72 | 0.658 | 0.66 | 0.529 | 0.71
IA-LM | 0.743 | 0.732 | 0.852 | 0.776 | 0.947 | 0.689 | 0.743 | 0.753 | 0.75 | 1.3 | 1.21 | 1.2 | 1.16 | 1.12 |  |  |  |  |  | 0.609
LC-2-ad | 0.861 | 0.833 | 0.973 | 0.877 | 0.458 | 0.396 | 0.483 | 0.46 | 0.443 |  | 0.894 | 0.903 | 0.837 | 0.939 | 0.407 | 0.633 | 0.582 | 0.677 | 0.349 | 0.857
LCLC-97TM1 | 0.242 | 0.242 | 0.255 | 0.233 | 0.248 | 0.349 | 0.354 |  | 0.234 | 0.875 | 0.863 | 0.862 | 0.939 | 0.989 | 0.294 | 0.667 | 0.938 | 0.801 | 0.721 | 
LCLC-103H | 0.992 | 0.954 | 1.03 | 0.855 | 1.1 | 0.982 | 1.02 | 0.875 | 1.09 | 0.712 | 0.711 | 0.95 | 0.701 | 0.767 | 0.553 | 0.506 | 0.62 | 0.539 | 0.392 | 0.998
LK-2 | 1.11 | 0.896 | 1.13 | 0.907 |  | 0.179 | 0.149 | 0.232 | 0.183 |  | 1.26 | 1.32 | 1.13 | 1.15 |  | 0.358 | 0.335 | 0.298 | 0.293 | 
LOU-NH91 | 0.71 | 0.769 | 0.731 | 0.69 | 0.729 | 0.719 | 0.745 | 0.688 | 0.774 | 0.9 | 0.889 | 0.977 | 0.924 | 0.97 | 0.516 | 0.532 | 0.54 | 0.593 | 0.523 | 0.635
LU99A | 0.552 | 0.624 | 0.605 | 0.479 | 0.604 | 0.527 | 0.46 | 0.44 | 0.625 | 0.75 | 0.744 | 0.752 | 0.663 | 0.721 |  | 0.606 | 0.649 | 0.711 | 0.439 | 
NCI-H522 |  |  |  |  |  |  |  |  |  |  |  |  |  |  |  | 0.904 | 1.12 | 0.781 | 0.765 | 
NCI-H1299 | 1.05 | 1.05 | 1.08 | 1.04 | 1.04 | 0.945 | 0.95 | 0.928 | 0.948 | 1.16 | 1.04 | 1.05 | 1.04 | 1.08 |  |  |  |  |  | 1.09
NCI-H1395 | 1.1 | 1.11 | 0.979 | 0.967 |  |  |  |  |  | 0.956 | 0.898 | 0.957 | 0.795 | 0.806 | 0.394 | 0.381 | 0.431 | 0.446 | 0.35 | 0.708
NCI-H1623 |  |  |  |  |  |  |  |  |  | 0.639 | 0.796 | 0.855 | 0.811 | 0.716 | 0.389 | 0.487 | 0.517 | 0.525 | 0.418 | 
NCI-H1650 |  |  |  |  |  | 0.899 | 1.11 | 0.81 | 0.919 |  | 0.895 | 1.35 | 0.98 | 1.17 | 0.342 | 0.292 | 0.317 | 0.351 | 0.254 | 
NCI-H1703 | 0.324 | 0.328 | 0.344 | 0.381 | 0.835 | 0.76 | 1.06 | 0.778 | 0.75 |  |  | 0.42 | 0.321 | 0.355 |  |  |  |  |  | 0.337
NCI-H1792 | 0.765 | 0.744 | 0.741 | 0.617 | 0.98 | 0.919 | 0.942 | 0.93 | 0.939 |  |  |  |  |  | 0.705 | 0.841 | 0.749 | 0.726 | 0.715 | 0.663
NCI-H1793 | 0.874 | 0.786 | 0.546 | 0.728 |  |  |  |  |  | 0.652 | 0.608 | 0.814 | 0.747 | 0.794 |  | 0.354 | 0.382 | 0.4 | 0.412 | 0.626
NCI-H2342 |  |  |  |  |  |  |  |  |  | 1.16 | 1.05 | 1.06 | 1.01 | 0.903 | 0.297 | 0.321 | 0.305 | 0.304 | 0.313 | 
SW 900 |  |  |  |  |  |  |  |  |  |  |  | 0.905 | 0.781 | 0.945 | 0.541 | 0.556 | 0.628 | 0.629 | 0.334 | 

— the supplement of paper PMC10307832
